Experiment: xn = mol fraction of the nth substance listed

CC(C)CO + CC#N
viscosity [mPa·s]
Conditions	x2 = 0.1676	x2 = 0.3118	x2 = 0.4373	x2 = 0.5476	x2 = 0.6442	x2 = 0.7304	x2 = 0.8083	x2 = 0.8784	x2 = 0.942	x2 = 0.9432
298.15 K, 101.3 kPa	1.788	1.186	0.87	0.692	0.567	0.483	0.434	0.395	0.371	–
303.15 K, 101 kPa	–	–	–	–	–	–	–	–	–	0.5569
303.15 K, 101.3 kPa	1.582	1.064	0.793	0.634	0.532	0.455	0.411	0.376	0.362	–
308.15 K, 101.3 kPa	1.389	0.962	0.725	0.586	0.494	0.428	0.39	0.358	0.344	–
313.15 K, 101.3 kPa	1.232	0.869	0.664	0.548	0.461	0.405	0.373	0.342	0.324	–

CCCCCOC(C)=O + ClCCCl
303.15 K, 101.3 kPa
Conditions	viscosity [mPa·s]
x1 = 0.1052	0.7366
x1 = 0.196	0.7444
x1 = 0.303	0.7582
x1 = 0.4004	0.7651
x1 = 0.4924	0.7693
x1 = 0.5994	0.7716
x1 = 0.702	0.7686
x1 = 0.805	0.762
x1 = 0.8946	0.7597

CCCCCOC(C)=O + OCc1ccccc1
Conditions	viscosity [mPa·s]
298.15 K, 101 kPa, x1 = 0.5	1.035

CCCCCC + CO
298.15 K, 101.33 kPa
Conditions	viscosity [mPa·s]
x2 = 0.0532	0.313
x2 = 0.0601	0.313
x2 = 0.138	0.317
x2 = 0.154	0.319
x2 = 0.2491	0.334
x2 = 0.8139	0.49
x2 = 0.8529	0.502
x2 = 0.8644	0.506
x2 = 0.9199	0.525
x2 = 0.9494	0.539
x2 = 0.9771	0.547

CC(C)CO + c1ccccc1
303 K, 101.3 kPa
Conditions	viscosity [mPa·s]
x2 = 0.1012	2.322
x2 = 0.2055	1.88
x2 = 0.3024	1.551
x2 = 0.4124	1.26
x2 = 0.511	1.057
x2 = 0.6016	0.9052
x2 = 0.706	0.7704
x2 = 0.8037	0.6783
x2 = 0.8987	0.6131

C=CC(=O)OCCCC + CCCCCCCCO
viscosity [mPa·s], 101.3 kPa
Conditions	x1 = 0.0586	x1 = 0.1668	x1 = 0.2181	x1 = 0.3218	x1 = 0.4238	x1 = 0.6226	x1 = 0.7052	x1 = 0.8125	x1 = 0.9095	x1 = 0.9529
298.15 K	5.944	4.17	3.544	2.729	2.165	1.403	1.232	0.998	0.9	0.85
308.15 K	4.393	3.177	2.752	2.096	1.689	1.146	0.992	0.841	0.753	0.715

C=CC(=O)OC + CCCCCCC
viscosity [mPa·s], 100 kPa
Conditions	x1 = 0.1065	x1 = 0.2053	x1 = 0.3084	x1 = 0.4061	x1 = 0.5019	x1 = 0.6048	x1 = 0.703	x1 = 0.8014	x1 = 0.9456
303.15 K	0.367	0.361	0.36	0.362	0.367	0.375	0.387	0.402	0.426
308.15 K	0.337	0.333	0.332	0.336	0.343	0.353	0.365	0.381	0.406
313.15 K	0.329	0.326	0.325	0.326	0.332	0.341	0.352	0.366	0.388

O=C1CCCN1C1CCCCC1 + CO
298.15 K, 100 kPa
Conditions	viscosity [mPa·s]
x1 = 0.0094	0.589
x1 = 0.0192	0.625
x1 = 0.0288	0.657
x1 = 0.0387	0.69
x1 = 0.0495	0.727
x1 = 0.053	0.743
x1 = 0.067	0.804
x1 = 0.0764	0.832
x1 = 0.0858	0.866
x1 = 0.0883	0.874
x1 = 0.094	0.91
x1 = 0.191	1.366
x1 = 0.2811	1.92
x1 = 0.3806	2.649
x1 = 0.48	3.553
x1 = 0.5758	4.526
x1 = 0.6836	5.807
x1 = 0.7845	7.171
x1 = 0.8973	8.652
x1 = 0.9035	8.749
x1 = 0.9182	8.971
x1 = 0.9294	9.118
x1 = 0.9448	9.356
x1 = 0.9517	9.496
x1 = 0.965	9.7
x1 = 0.9749	9.843
x2 = 0.0157	10

C=CC(=O)OCCCC + CCCCCCCO
viscosity [mPa·s], 101.3 kPa
Conditions	x1 = 0.0538	x1 = 0.1451	x1 = 0.1979	x1 = 0.2976	x1 = 0.5964	x1 = 0.6984	x1 = 0.7966	x1 = 0.8968	x1 = 0.9498
298.15 K	4.656	3.548	3.084	2.394	1.35	1.12	0.981	0.869	0.824
308.15 K	3.481	2.761	2.398	1.922	1.084	0.925	0.836	0.736	0.705

CCCCCOC(C)=O + ClC(Cl)(Cl)Cl
303.15 K, 101.3 kPa
Conditions	viscosity [mPa·s]
x1 = 0.0945	0.8029
x1 = 0.1925	0.7788
x1 = 0.3042	0.7586
x1 = 0.4017	0.7482
x1 = 0.5021	0.7413
x1 = 0.6003	0.7378
x1 = 0.7016	0.7385
x1 = 0.808	0.7427
x1 = 0.9075	0.746

Cc1ccccc1O + Cc1cccc(O)c1
viscosity [mPa·s]
Conditions	298.15 K	313.15 K	323.15 K
101 kPa, x1 = 0.1537	12.16	–	–
101 kPa, x1 = 0.3061	11.09	–	–
101 kPa, x1 = 0.3536	10.75	–	–
101 kPa, x1 = 0.3954	10.5	–	–
101 kPa, x1 = 0.506	9.939	–	–
101 kPa, x1 = 0.6371	9.208	–	–
101 kPa, x1 = 0.7608	8.582	–	–
101 kPa, x1 = 0.8803	8.086	–	–
101.3 kPa, x2 = 0.1	–	4.379	3.086
101.3 kPa, x2 = 0.2	–	4.539	3.145
101.3 kPa, x2 = 0.3	–	4.689	3.235
101.3 kPa, x2 = 0.4	–	4.861	3.32
101.3 kPa, x2 = 0.5	–	5.048	3.417
101.3 kPa, x2 = 0.6	–	5.248	3.543
101.3 kPa, x2 = 0.7	–	5.462	3.666
101.3 kPa, x2 = 0.8	–	5.693	3.805
101.3 kPa, x2 = 0.9	–	5.966	3.949

From the CheMixHub viscosity set
